From article PMC7395068, “The evolution of strategies to minimise the risk of human drug-induced liver injury (DILI) in drug discovery and development” (Archives of Toxicology, 2020)
Where two headings read alike, the source gives them in different places.

Legend:
[1] = read-out: Human plasma Cmax; total plasma Cmax.tot, median of 9 literature references; cited from earlier work
[2] = system: isolated mouse liver mitochondria; settings: In vitro Assay; ref Porceddu 2012; cited from earlier work
hLiMTs [3] = settings: cited from earlier work
[4] = system: HepG2 cells, primary human hepatocytes; settings: In vitro Assay; ref Garside 2014; cited from earlier work
[5] = system: THLE or HepG2 cells, isolated mitochondria, BSEP; settings: cited from earlier work
PHH [6] = settings: cited from earlier work
[7] = Plasma free fraction (fu) and unbound Cmax (Cmax,u); assay type: in vitro ADME, human; settings: unbound plasma Cmax
[8] = system: THLE-Null and THLE-3A4 cells; settings: In vitro Assay; ref Gustafsson 2014; cited from earlier work
HepG2 cells = settings: In vitro Assay; ref Persson 2013; cited from earlier work
HepG2 = system: HepG2; design: method as in Albrecht 2019; settings: In vitro Assay; ref Albrecht 2019; cited from earlier work
HepaRG spheroids = assay: Combined HCI (HCS) and cellular ATP 3D assay in HepaRG spheroids; settings: HepaRG; for AC50 / minimal effective concentration: Homo sapiens
hLiMTs [9] = assay: Combined HCI (HCS) and cellular ATP 3D assay in hLiMTs
[10] = plasma free fraction; cited from earlier work
PHH [11] = settings: In vitro Assay; ref Albrecht 2019; cited from earlier work
[12] = In vitro Assay, ref Proctor 2017
[13] = Modeled in vitro assays (cytotoxicity, mitochondrial dysfunction, BSEP), ref Aleo et al. 2019

Human plasma Cmax,u [7]: 55.474 µM
HepaRG <25x Avg Cmax ATP (HepaRG spheroids; ATP endpoint, cut-off <25x Avg Cmax): +ve
HepaRG <100x Avg Cmaxu ATP (HepaRG spheroids; ATP endpoint, cut-off <100x Avg Cmaxu): +ve (<100x Avg Cmaxu)
HepaRG <25x Avg Cmax HCS (HepaRG spheroids; HCS endpoints, cut-off <25x Avg Cmax): +ve
HepaRG <100x Avg Cmaxu HCS (HepaRG spheroids; HCS endpoints, cut-off <100x Avg Cmaxu): +ve (<100x Avg Cmaxu)
HepaRG <25x Avg Cmax All (HepaRG spheroids; all endpoints (ATP and HCS), cut-off <25x Avg Cmax): +ve
HepaRG Cmax max All (HepaRG spheroids; all endpoints, Cmax max used): +ve
HepaRG Cmax min All (HepaRG spheroids; all endpoints, Cmax min used): +ve
HepaRG <10 uM All (HepaRG spheroids; all endpoints, cut-off <10 uM): -ve
HepaRG <100x Avg Cmaxu All (HepaRG spheroids; all endpoints, cut-off <100x Avg Cmaxu): +ve (<100x Avg Cmaxu)
hLiMTs <25x Avg Cmax ATP (hLiMTs [9]; hLiMTs, ATP endpoint, cut-off <25x Avg Cmax): +ve
hLiMTs <100x Avg Cmaxu ATP (hLiMTs [9]; hLiMTs, ATP endpoint, cut-off <100x Avg Cmaxu): -ve
hLiMTs <25x Avg Cmax HCS (hLiMTs [9]; hLiMTs, HCS endpoints, cut-off <25x Avg Cmax): +ve
hLiMTs <100x Avg Cmaxu HCS (hLiMTs [9]; hLiMTs, HCS endpoints, cut-off <100x Avg Cmaxu): +ve (<100x Avg Cmaxu)
hLiMTs <25x Avg Cmax All (hLiMTs [9]; hLiMTs, all endpoints (ATP and HCS), cut-off <25x Avg Cmax): +ve
hLiMTs Cmax max All (hLiMTs [9]; hLiMTs, all endpoints, Cmax max used): +ve
hLiMTs Cmax min All (hLiMTs [9]; hLiMTs, all endpoints, Cmax min used): +ve
hLiMTs <10 uM All (hLiMTs [9]; hLiMTs, all endpoints, cut-off <10 uM): -ve
hLiMTs <100x Avg Cmaxu All (hLiMTs [9]; hLiMTs, all endpoints, cut-off <100x Avg Cmaxu): +ve (<100x Avg Cmaxu)
Compound: CCCC(CCC)C(=O)O [valproic acid]
Cmax [1]: 693 µM
in vitro data EC2<=1x Cmax [2]: +VE
in vitro data EC20<=2uM [2]: -VE
hLiMTs ATP <100uM (hLiMTs [3]; [12]): -VE
hLiMTs/100uM, Proctor (2017) (hLiMTs [3]; hLiMTs, ATP, IC50 threshold 100 µM, ref Proctor et al. 2017): -VE
Cluster 1-6 +VE Assay [4]: +VE
Partition Hybrid HRM Score ([5]; In vitro Assay, ref Aleo 2019): +VE
Ro2 Hybrid HRM Score ([5]; In vitro Assay, ref Aleo 2019): +VE
Partition Hybrid HRM Score ≥4, Aleo (2019) [5, 13]: +VE (Partition Hybrid HRM Score ≥4)
Partition Hybrid HRM Score ≥8, Aleo (2019) [5, 13]: +VE (Partition Hybrid HRM Score ≥8)
Rule of Two hybrid HRM Score ≥3, Aleo (2019) [5, 13]: +VE (Rule of Two hybrid HRM Score ≥3)
Rule of Two hybrid HRM Score ≥8, Aleo (2019) [5, 13]: -VE
PHH/100uM, Proctor (2017) (PHH [6]; 2D PHH, ATP, IC50 threshold 100 µM, ref Proctor et al. 2017): -VE
PHH ATP <100uM (PHH [6]; [12]): -VE
THLE-Null [8]: -VE
Cluser analysis (HepG2 cells): -VE
Structural based (HCI) (HepG2 cells): -VE
Cytotoxicity HepG2 48 hrs (HepG2): +VE
AC50 (HepaRG spheroids; read-out: ATP endpoint AC50): 41.3 µM
minimal effective concentration (HepaRG spheroids; read-out: ATP endpoint MEC): 12.3 µM
AC50 (HepaRG spheroids; read-out: HCS endpoint AC50): 148 µM
minimal effective concentration (HepaRG spheroids; read-out: HCS endpoint MEC): 45.6 µM
AC50 (hLiMTs [9]; Homo sapiens, read-out: ATP endpoint AC50): 7080 µM
minimal effective concentration (hLiMTs [9]; Homo sapiens, read-out: ATP endpoint MEC): 6220 µM
minimal effective concentration (hLiMTs [9]; Homo sapiens, read-out: HCS endpoint MEC): 1600 µM
fu [10]: 0.080
Cytotoxicity PHH 48 hrs (PHH [11]): +VE
